Measurements taken from patent US20230355810A1, “Semifluorocarbon Compound Containing Contrast Agent” (B. Braun Melsungen AG, priority 2013, published 2023).

Tests used:
[1] = Density measurement of mixtures of MCT and F6H8; format: physicochemical; conditions: based on the total weight of the oil phase, FIG. 1C
From the text: By adapting the density of the oil phase to the density of the aqueous phase coalescence phenomena of the droplets as well as sedimentation phenomena, which destabilize the emulsion, can be decreased.
At about 38.5 wt.-% of F6H8 and about 61.5 wt.-% of MCT, (weight based on the total weight of the oil phase) the density of the oil mixture corresponds to the density of the aqueous phase.

[2] = Miscibility / solubility of the fluorinated compound in the oil (MCT, PFOB); format: physicochemical
Protocol: The emulsion of the invention comprises the semifluorinated compound and preferably the mid-chain triglyceride (MCT). According to one aspect of the invention the oil components of the emulsion form a homogeneous solution at 20° C. […] The oil phase may comprise further oil components such as long chain fatty acid triglycerides based on vegetable oil or marine oils such as fish oil. The amount of the further oil components is preferable adjusted that a completely miscible oil phase is maintained. Generally, the amount of oil components which are different from the semifluorinated compound and triglyceride b) which is preferably the MCT, are less than 50 weight percent (wt.-%), preferably less than 40 wt.-%, more preferably less than 30 wt.-%, further preferably less than 20 wt.-%, especially less than 10 wt.-%, in particular less than 5 wt.-% or essentially free, wherein the amount is based on the total weight of the oil components.
Perfluoroctylbromide (PFOB) is a known contrast agent for the magnetic resonance spectroscopy.

**Q.** For CCCCCCCCC(F)(F)C(F)(F)C(F)(F)C(F)(F)C(F)(F)C(F)(F)F [Example F6H8, perfluorohexyloctane], which “share of F6H8 in the oil phase (rest MCT, about 61.5 wt.-%) at which the density of the oil mixture corresponds to the density of the aqueous phase” value [1] is on record?
**A.** The value was “about 38.5 wt.-%”.

**Q.** What about the “miscibility with MCT” value ([2]; 20° C.) of the same compound?
**A.** Its value is “miscible at 20 °C”.

**Q.** For FC(F)(F)C(F)(F)C(F)(F)C(F)(F)C(F)(F)C(F)(F)C(F)(F)C(F)(F)C(F)(F)C(F)(F)Br [PFDB, perfluorodecylbromide], which “solubility in PFOB” value [2] is on record?
**A.** Its value is “can be dissolved in PFOB”.

**Q.** For FC(F)(F)C(F)(F)C(F)(F)C(F)(F)C(F)(F)C(F)(F)C(F)(F)C(F)(F)Br [PFOB, Perfluoroctylbromide], which “solubility in MCT” value [2] is on record?
**A.** Its value is “cannot be dissolved in MCT”.
